In ChEMBL document CHEMBL5346883, “Discovery and pharmacological characterization of a novel benzimidazole TRPV4 antagonist with cyanocyclobutyl moiety” (Eur J Med Chem, 2023) one finds CC50, IC50 and Activity data, which are given here for 4 molecules.

Data set [1] in a line: Cytotoxicity against human HUVEC cells assessed as reduction in cell viability. The data set is classed as toxicity, cell-based.
Data set [2] has as its target T1, Transient receptor potential cation channel subfamily V member 4 (Homo sapiens, UniProt Q9HBA0). Briefly: Antagonist activity at TRPV4 (unknown origin) expressed in Flp-In-CHO cells assessed as inhibition of GSK1016790A induced Ca2+ influx by calcium imaging method. Format: cell-based.
Data set [3] deals with T1, Transient receptor potential cation channel subfamily V member 4. Briefly: Antagonist activity at human TRPV4.
In data set [4] the test system is Mus musculus. Kind of data set: Antiinflammatory activity in LPS-induced acute lung injury mouse model assessed as BALF protein concentration at 1 mg/kg, ip. The data set is classed as functional.
Data set [5] deals with Mus musculus. Briefly: Antiinflammatory activity in LPS-induced acute lung injury mouse model assessed as pathological score at 1 mg/kg, ip by hematoxylin and eosin staining based analysis. The data set is classed as functional.

Where only a bound is given, the exact number is not on record here.

T1 sequence (Q9HBA0 whole entry): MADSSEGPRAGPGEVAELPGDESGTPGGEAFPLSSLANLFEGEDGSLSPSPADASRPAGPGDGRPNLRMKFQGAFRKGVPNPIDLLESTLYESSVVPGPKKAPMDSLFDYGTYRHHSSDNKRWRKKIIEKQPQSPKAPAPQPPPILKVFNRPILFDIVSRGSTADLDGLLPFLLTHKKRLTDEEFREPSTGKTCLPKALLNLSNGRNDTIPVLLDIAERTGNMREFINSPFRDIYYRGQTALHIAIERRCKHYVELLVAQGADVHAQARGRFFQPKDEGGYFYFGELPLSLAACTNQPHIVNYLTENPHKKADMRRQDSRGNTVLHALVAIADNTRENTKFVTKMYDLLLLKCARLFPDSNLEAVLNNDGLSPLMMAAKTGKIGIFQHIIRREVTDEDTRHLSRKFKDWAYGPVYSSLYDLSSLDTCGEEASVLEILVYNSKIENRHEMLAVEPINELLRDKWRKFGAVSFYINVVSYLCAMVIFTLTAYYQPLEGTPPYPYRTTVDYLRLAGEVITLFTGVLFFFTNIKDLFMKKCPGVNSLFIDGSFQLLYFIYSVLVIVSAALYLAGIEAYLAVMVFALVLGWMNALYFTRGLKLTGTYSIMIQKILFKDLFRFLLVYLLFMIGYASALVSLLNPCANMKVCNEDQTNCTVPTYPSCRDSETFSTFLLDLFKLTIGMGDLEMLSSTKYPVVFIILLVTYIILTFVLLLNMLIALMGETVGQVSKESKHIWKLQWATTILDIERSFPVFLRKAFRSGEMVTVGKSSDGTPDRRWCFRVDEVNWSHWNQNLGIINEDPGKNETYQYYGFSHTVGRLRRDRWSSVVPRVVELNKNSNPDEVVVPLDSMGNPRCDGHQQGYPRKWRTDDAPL

On to `CC(=O)Nc1c(Cl)c(Cl)cc2c1nc(NC(C)C)n2C1CCN(c2ccc(C3(C#N)CCCC3)cc2)CC1`, for which, in data set [1], the cytotoxic concentration (CC50) was above 100000 nM.
Still for that read-out and setting: the value for `CC(=O)Nc1c(Cl)c(Cl)cc2c1nc(NC(C)C)n2C1CCN(c2ccc(C3(C#N)CCC3)cc2)CC1` was above 100000 nM.
With `CC(C)C[C@H](NC(=O)c1cc2ccccc2s1)C(=O)N1CCN(C(=O)[C@H](CO)NS(=O)(=O)c2ccc(Cl)cc2Cl)CC1`, the half-maximal inhibitory concentration (IC50) in data set [2] is 122 nM.
`Cc1c(C(=O)Nc2cccc(C(F)(F)F)c2)cc(-c2ccccc2)n1CCCN1CCOCC1`: the concentration for half-maximal inhibition (IC50) turned out to be 203 nM in data set [3] and 73.6 nM in data set [2]. Besides, the values for the Activity in the data set on Mus musculus [4] and with Mus musculus [5] were 1.5 and 5.4, respectively.
